# Test results: patent US12377082B2, “Nicorandil derivatives” (priority 2019, dated 2025)
# How the values were obtained:
# [1] = Conversion of Compound A to nicorandil in rat plasma (FIG. 2); format: in vitro ADME; details: various time points
# [2] = Pharmacokinetics (PK) in rat, oral dosing, plasma levels of parent drug nicorandil; format: in vivo, SD rats
# Procedure: Pharmacokinetics (PK) Protocol: Rat
# The dosing vehicle used in this study was PEG400. 1, 3, 10 mg/kg oral dosing was done in overnight fasted SD rats and the parent drug generated was monitored. Also presence of modified drug was checked. After oral (PO) dosing blood was collected by serial bleeding at 8 different time points in heparinised tubes. […] Supernatant was kept for analysis. […] Quantitative analysis was done by liquid chromatography tandem mass spectrometer (API3000 LC-MS/MS).
# [3] = Pharmacokinetics (PK) in dog, oral dosing; format: in vivo, Beagle dog
# Procedure: Pharmacokinetics (PK) Protocol: Dog
# 0.5 ml blood was collected at each time point from the femoral vein via direct stick at defined time points. in tubes containing anticoagulant. […] Supernatant was kept for analysis. […] Quantitative analysis was done by liquid chromatography tandem mass spectrometer (API3000 LC-MS/MS).
structure (smiles),measurement,setting,value
"C[C@H](NC(=O)OC[n+]1cccc(C(=O)NCCO[N+](=O)[O-])c1)C1CCCCC1 [Compound 8, (S)-1-(((1-cyclohexylethylcarbamoyl)oxy)methyl)-3-((2-(nitroxy)ethyl)carbamoyl)pyridine-1-ium iodide]",conversion to nicorandil,[1],Complete conversion to nicorandil
same,dose linearity of plasma exposure,"[2]; rat, 1, 3, 10 mg/kg oral",displayed dose linearity
same,modified drug detected in plasma,"[2]; rat, oral",no modified drug was detected
same,plasma exposure (in words),"[2]; rat, oral",excellent plasma exposure
same,plasma exposure compared (AUC and Cmax),[3]; 3 mg/kg oral,significantly higher
same,modified drug detected in plasma,[3]; oral,no modified drug was detected
same,plasma exposure (in words),[3]; oral,excellent plasma exposure
